Measured values as given in patent US5543410A, “Pharmacological use of phthaloylhydrazide derivatives; combination and application thereof” (L.I.M.A.D. Limited, priority 1993, dated 1996).
Read-outs that look alike come from different tables or passages of the source.

Tests used:
[1] = model systems (micellar phase); times less
Protocol: (§1) In models corresponding to acute purulent inflammation (wounds) caused by inoculation of a suspension of pathogenic microbes, such as E. coli and S. aureus, pentane production within air exhaled by the respective animals was measured.

[2] = tested on: acute purulent inflammation (wounds) caused by E. coli and S. aureus; conditions: single administration
Protocol: as §1

[3] = tested on: peroxidation of blood plasma
Protocol: as §1

[4] = pharmacokinetics, plasma half-life; assay type: in vivo
metabolic products = assay type: in vivo; conditions: in vivo; read-out: fraction of compound decomposed into 5-aminophthalic acid, oxygen, and nitrogen
[5] = tested on: proctitis attributable to radiation therapy
Source text: B., a patient who was […], complained of burning sensations in the anus, along with frequent and painful urination, after having received radiation therapy for a period of forty-five days. During a rectosigmoidoscopy examination, intense edema and contact hemorrhaging within the rectal mucosae were observed above the tumor. The diagnosis was: proctitis and cystitis arising from radiation therapy. On account of a lack of specific therapeutic measures, the drug was prescribed for the patient according to a dose of 100 mg per day.

hemorrhoids = tested on: hemorrhoids
Source text: (§2) Similarly, anal fissures have represented a difficult problem for modern medicine to resolve. In this instance, the inflammatory component is associated with a morphological defect.
The drug was used in the form of suppositories in 0.1 g doses once daily, in order to treat acute hemorrhoids in patients whose ages were from twenty to sixty years.

anal fissures = tested on: anal fissures
Protocol: as §2
The drug was administered to this group of patients in the form of suppositories, in doses of 100 mg every twelve hours, during a five-day period.

[6] = tested on: piglets affected by dysentery; assay: dysentery in piglets; assay type: in vivo
Protocol: Experiments were performed with piglets weighing from 30 to 40 kgs, which were affected by dysentery.
Nevertheless, symptoms reappeared six to seven hours later in one group of animals. This factor rendered repeated administration of the drug necessary.

[7] = tested on: suppuration of a paracolostomy incision
Protocol: The patient cited pain in the region affected by infiltration, and an increase in body temperature was observed. A suppository containing 200 mg of the drug was applied to the incision. […] An identical dose of the drug was administered again twelve hours later.

anal adenocarcinoma = tested on: anal adenocarcinoma
Source text: Kh., a patient who was […], had been diagnosed with an anal adenocarcinoma seven months earlier.
The diagnosis had been verified histologically. The patient cited pain in the anus, constipation, difficulty in defecating, and secretion of mucus and blood from the anus. On account of the patient's categorical refusal to undergo surgery for abdominoperineal excision of the rectum, radiation therapy had been provided in doses of […]. […] Forty days later, the patient underwent another cycle of radiation therapy, with doses of […]. During the next thirty days, the drug was administered in doses of 100 mg every four hours, in the form of rectal suppositories. […] For the next thirty days, the dosage of the drug was increased, and intramuscular administration of 100 mg per day was provided for this patient, along with a rectal suppository (100 mg).

[8] = in vivo
male mice = conditions: 30 and 60 mg/kg
Protocol: Doses of 30 mg/kg and 60 mg/kg according to body weight were used for studying pharmacological properties in relation to the central nervous system. Selection of this dosage level was based upon criteria in terms of safety in using drugs.
Neuropharmacological effects were studied in sexually mature male mice from unspecified strains. A solution of the drug was administered intraabdominally to these mice, with weights of 18.0 g to 20.0 g, and neuropharmacological effects were studied in terms of changes in the natural orientation reflex, in induced aggressiveness, and in muscle tone. Changes in natural orientation were recorded according to current methods. For determining the drug's influence upon induced aggressiveness, the electrical stimulation method (an electrical current which caused pain was transmitted) was adopted.
Changes in muscle tone were measured according to the "pivot pin" method.

[9] = tested on: tumor necrosis factor (TNF)
[10] = tested on: mice exposed to carbon tetrachloride; conditions: 10 to 20 mg/kg; control group 65 percent
psoriasis = conditions: 2 to 5 mg/kg
[11] = tested on: chronic inflammation of female genitalia; conditions: 100 mg once each day
Protocol: The drug was administered to these patients in the form of rectal suppositories (to be inserted at night), in doses of 100 mg once each day, for a five-day period. Subsequently, vaginal insertion was performed for an additional period of two days.

[12] = tested on: perineal cutaneous melanoma
Protocol: Localized excision of the tumor was performed, and the group of lymph nodes in the left inguinal region was removed.
This phenomenon was indicative of the onset of recurrence of the tumor. Intramuscular administration of the drug in 100 mg doses was provided on alternating days.
Beginning on the twentieth day, the drug was administered in 100 mg intramuscular doses every day.

[13] = tested on: abortion induced by Salmonella typhinurium endotoxin; conditions: 15 mg/kg; abortions in eighty percent without drug
[14] = tested on: suppuration and abscesses affecting the jaw; conditions: one day after
Protocol: The patients were subdivided into three groups according to alphabetical order. The drug was prescribed for every patient on one occasion, although different dosages were adopted (1 mg/kg; 2 mg/kg; 4 mg/kg).

[15] = tested on: dermatitis of unknown etiology
Protocol: The patient was treated for fourteen days.
The affected cutaneous areas were treated three times daily with a water-soluble emulsion containing 30 mg of the drug, and, on alternating days, suppositories containing 50 mg of the drug (5 mg/kg according to weight) were administered rectally.

[16] = passage through living membranes / microbial membranes
[17] = 100 mg suppositories morning and evening
[18] = after five to six days of treatment
[19] = 100 mg intramuscular on alternating days

Source text for autoimmune diseases: Nevertheless, repeated administration of the drug is required in order to accomplish this objective.

Nc1cccc2c(=O)[nH][nH]c(=O)c12
antioxidant effectiveness less than previously identified antioxidants [1]: thirty to fifty | pentane level attained [2]: until a normal level was attained | time to reduction in pentane in exhaled air [2]: thirty to sixty | antioxidant effectiveness versus known antioxidants ([3]; blood plasma): significantly superior to known antioxidants such as dibunol, alphatocopherol, and superoxydismutaze (SOD) | increase in retardation constant for peroxidation of blood plasma ([3]; two to five minutes after administration): ten to twelve | duration of activity in hydrophobic phase of living membranes ([4]; in vivo): remains active for several hours | half-life ([4]; intramuscular and rectal): forty to sixty | half-life within blood plasma ([4]; intravenous): five to fifteen | metabolised (metabolic products): > 90% | clinical effect ([5]; 100 mg per day, three days): absence of any significant clinical effect | time to decrease of anal burning and painful urination [5, 17]: one | time until pain and burning no longer present [5, 17]: third | time to normal urination ([5]; after the dosage was increased): fifth | rectosigmoidoscopy finding ([5]; ten days later): regeneration of the capillary network within the rectal mucosae was observed | recovery (hemorrhoids; 0.1 g once daily): The patients recovered fully | time until inflammatory process and enlargement of hemorrhoidal nodes disappeared (hemorrhoids; 0.1 g once daily): fifth | time until anal pain ceased (hemorrhoids; 0.1 g suppositories once daily): Seventeen to thirty | time to alleviation of pain syndrome (hemorrhoids; rectal administration): thirty | inflammatory process and edema (hemorrhoids; twelve hours): significant shrinkage of the inflammatory process and reduction of edema in hemorrhoidal nodes | time until pain ceased (anal fissures; 100 mg suppositories every twelve hours): twenty to thirty | recurrences (anal fissures; [18]): Recurrences were not observed | regeneration of the mucosae (anal fissures; [18]): regeneration of the mucosae was visually observable | defecation and sphincter spasms (anal fissures; after the third suppository): defecation became painless, and spasms affecting the sphincter diminished | recovery (anal fissures; by the fifth day): the patients had practically recovered | other symptoms (anal fissures; rectal administration): other symptoms were also eliminated by the end of the first day of treatment | time to significant alleviation of the pain syndrome (anal fissures; rectal administration): twenty to forty | effectiveness in alleviating diarrhea ([6]; 50 mg/kg, fourth series): limited effectiveness in alleviating diarrhea | therapeutic effect ([6]; 10, 25, and 50 mg/kg, third series): relatively insignificant | reappearance of dysentery symptoms ([6]; 20 and 50 mg/kg, second series): symptoms of dysentery reappeared at the end of the first day | instances with therapeutic effects ([6]; 20 and 50 mg/kg, sixteen animals, second series): six | time to decline of temperature ([7]; 200 mg suppository): Six | time until pain ceased ([7]; 200 mg suppository applied to incision): twenty to thirty | wound ([7]; six days of treatment): the wound was wholly devoid of pus | edema within soft tissues ([7]; twenty-one hours after commencement): had decreased significantly | tumor size (anal adenocarcinoma; 100 mg every four hours rectal, thirty days, after radiation): reduction of the tumor was observed | reduction of anal tumor in relation to its initial dimensions (anal adenocarcinoma; 100 mg intramuscular per day plus 100 mg suppository, further thirty days): two-thirds | tumor dimensions and intoxication (conclusion) (anal adenocarcinoma; combination with radiation therapy): reduction of the tumor's dimensions was therefore obtained within a brief period and symptoms of intoxication were eliminated | general condition (anal adenocarcinoma; in vivo): an improvement of the patient's general condition was observed | CL renal [8]: 50 to 80 mL/min | threshold for sensitivity to pain (male mice): did not alter the threshold for sensitivity to pain | natural orientation reflex (male mice; intraabdominal): did not suppress the natural orientation reflex | muscle tone (male mice; pivot pin method): did not cause changes in muscle tone | action of TNF in mutated cells [9]: intensifies the action of the tumor necrosis factor (TNF) in mutated cells | mortality rate [10]: 14% | development of psoriasis (psoriasis): did not substantially influence the development of psoriasis | patients in whom subsequent development of pathological processes was prevented (autoimmune diseases; after an initial phase of treatment): 90% | principal symptoms (autoimmune diseases; suppositories, intravenous or intramuscular, repeated): allows alleviation of the principal symptoms of these diseases | expansion of malignant tumors (malignant tumors; increasing doses and frequency): ensures inhibition of the expansion of malignant tumors | tumor dimensions and general condition (malignant tumors; three patients): favorable results represented by reduction of the dimensions of tumors and by an improvement in their general condition | effect in combination with radiation therapy (malignant tumors; total dose of 60 to 90 g): the effect upon its action is intensified | time to healing [11]: eighth | time until vaginal secretions ceased completely [11]: fifth | therapeutic effect ([11]; second day): the therapeutic effect was observable | infiltration in the region of the postoperative scar ([12]; 100 mg intramuscular every day, checkup thirty days later): disappearance of infiltration in the region of the postoperative scar was observed | abnormal salivation [12, 19]: On the third day after the commencement of treatment, abnormal salivation began | vomiting and diuresis [12, 19]: vomiting occurred on the fourth day, along with an increase in diuresis | cessation of symptoms (salivation, vomiting, diuresis) ([12]; in vivo): gradually ceased on the thirteenth and fourteenth days | abortion prevented [13]: seven | therapeutic effect ([14]; 1 mg/kg): no therapeutic effect had occurred | patients with therapeutic effect ([14]; 2 mg/kg): four | patients with therapeutic effect ([14]; 4 mg/kg, each of the six patients): six | time to completed epithelization ([15]; 30 mg emulsion three times daily, 50 mg suppositories on alternating days): fourteenth | affected cutaneous areas ([15]; after the second day): began to become drier | passage through the hydrophobic phase of living membranes [16]: easily passing through the hydrophobic phase of living membranes
